This is an account of results in patent US4056631A, “Method of combatting ticks” (Showa Denko K.K., priority 1973, dated 1977).

For orientation: mortality means the percentage killed. The LD50 is the dose expected to kill half of the subjects tested. A low value points to greater toxicity.

The test system of series [1] is Haemaphysalis longicornis. Nature of the series: Test 2: killing of tick larvae of Haemaphysalis longicornis (immersion in emulsified aqueous solution). The format is in vivo. The settings on record: immersed 2 to 5 minutes, 25° C. for 24 hours, read-out: Combatting Effect of Larvae of Haemaphysalis longicornis (mortality of unfed larvae). As for the experimental part:
(§1) Groups of 50 to 100 larvae of Boophilus microplus and Haemaphysalis longicornis of about two weeks old placed in paper packets were immeresed for 2 to 5 minutes in an emulsified aqueous solution of the test compounds of a concentration of 100 ppm, and the larvae were incubated at 25° C. for 24 hours according to the procedure described by Stone and Haydock (1962), and the rate of the larvae killed were determined. Each figure indicates mortality of unfed larvae after treatment with the test compounds.

Series [2] concerns Boophilus microplus. The series can be described thus: Test 1: inhibition of oviposition by Boophilus microplus (acetone solution dropped on back of blood-fed females). The following applies: Rhipicephalus microplus, topical, 336 h, read-out: Inhibition Ratio of Oviposition by Boophilus microplus.
Description: (§2) One each of the adults of female Boophilus microplus or Haemaphysalis longicornis which had been allowed to suck blood fully was placed in a flat bottom test tube having a diameter of 10 millimeters and a depth of 35 millimeters. After rendering the chemicals to be tested into acetone solutions, the solutions were dropped to the back of the ticks in an amount corresponding to 110 gamma per one gram of body weight, using a micro syringe after which the acetone was evaporated. The test tube was then transferred to a desiccator containing a small portion of water where it was left standing at a constant temperature of 30° C., and the ticks were allowed to oviposit. Two weeks later, the amount of eggs laid per 1 gram of body weight was counted. Using this value and the amount of eggs laid in the case of the control group not treated with the chemicals, the rate of inhibition of oviposition was obtained as follows: [formula] where A is the number of eggs laid per gram of body weight of ticks of the group not treated with chemicals,
(§3) B is the number of eggs laid per gram of body weight of ticks of the group treated with chemicals.
(§4) The foregoing ratio was used to indicate the effectiveness of the chemicals tested.
In series [3] the test system is Boophilus microplus. The series can be described thus: Test 2: killing of tick larvae of Boophilus microplus (immersion in emulsified aqueous solution). The following applies: Rhipicephalus microplus, immersed 2 to 5 minutes, 25° C. for 24 hours, read-out: Combatting Effect of Larvae of Boophilus microplus (mortality of unfed larvae). The format is in vivo. As for the experimental part: as §1

Series [4] deals with Haemaphysalis longicornis. The series can be described thus: Test 1: inhibition of oviposition by Haemaphysalis longicornis (acetone solution dropped on back of blood-fed females). The settings on record: topical, 336 h, read-out: Inhibition Ratio of Oviposition by Haemaphysalis longicornis.
Description: as §2, §3, §4
A short description of series [5]: Test 4: acute oral toxicity in mice. The following applies: mouse, in vivo, single dose, observed for a week. Also on record: species or system mice (male albino, strain ddY). Here is the method: Acute oral toxicity was determined by using male albino mice strain ddY, 5 weeks old. The test compounds were administered orally once and the LD50 values were calculated after observing for a week.

For the compound `CCN=C=NC(C)(C)c1ccccc1` [Compound 1, N-ethyl-N'-(2-phenyl-2-propyl)carbodiimide], the mortality at 100 ppm in series [1] amounted to 98%.

Consider `CCCN=C=NC(C)(C)c1ccccc1` [Compound 2, N-n-propyl-N'-(2-phenyl-2-propyl)carbodiimide], for which the pest or weed control at 110 µg/g in the series on Boophilus microplus [2] came out at 100%.

For `CC(C)N=C=NC(C)(C)c1ccccc1` [Compound 3, N-iso-propyl-N'-(2-phenyl-2-propyl) carbodiimide], the mortality at 100 ppm in the series with Boophilus microplus [3] is 96.4%.

`CC(C)(C)N=C=NC(C)(C)c1ccccc1` [Compound 4, N-tert-butyl-N'-(2-phenyl-2-propyl)carbodiimide]: in series [1], the mortality at 100 ppm stood at 80.3%.

In the case of `CCCCCN=C=NC(C)(C)c1ccccc1` [Compound 5, N-n-pentyl-N'-(2-phenyl-2-propyl)carbodiimide], the mortality at 100 ppm in series [1] was found to be 100%. Besides, in series [4], the pest or weed control at 110 µg/g was 100%.

As for `CCCCCCN=C=NC(C)(C)c1ccccc1` [Compound 6, N-n-hexyl-N'-(2-phenyl-2-propyl)carbodiimide], the pest or weed control at 110 µg/g in the series with Boophilus microplus [2] was 96.3%; in series [4] it was 100%. Besides, the mortality at 100 ppm with Boophilus microplus [3] was 74.6%. The compound further came in with an LD50 at 168 h in series [5] of 2000 mg/kg.

As to `CCCCCCCN=C=NC(C)(C)c1ccccc1` [Compound 7, N-n-heptyl-N'-(2-phenyl-2-propyl)carbodiimide], the pest or weed control at 110 µg/g (in the series on Boophilus microplus [2]; in series [4]) was 100% throughout.

As to `CCCCCCCCN=C=NC(C)(C)c1ccccc1` [Compound 8, N-n-octyl-N'-(2-phenyl-2-propyl)carbodiimide], the pest or weed control at 110 µg/g (in the series with Boophilus microplus [2]; in series [4]) was 100% throughout. Moreover, in the series with Boophilus microplus [3], the mortality at 100 ppm came out at 68.5%. For the same compound, the LD50 at 168 h in series [5] was 6000 mg/kg.

On to `CCCCC(CC)CN=C=NC(C)(C)c1ccccc1` (stereo not shown) [Compound 9, N-(2-ethyl-n-hexyl)-N'-(2-phenyl-2-propyl)carbodiimide], for which the mortality at 100 ppm in series [1] was 100%. Also, the LD50 at 168 h in series [5] was found to be 7000 mg/kg. Also, the pest or weed control at 110 µg/g in series [4] was found to be 100%.

`CCCCCCCCCN=C=NC(C)(C)c1ccccc1` [Compound 10, N-n-nonyl-N'-(2-phenyl-2-propyl)carbodiimide]: the pest or weed control at 110 µg/g (in the series with Boophilus microplus [2]; in series [4]) was 100% throughout.

With `CCCCCCCCCCN=C=NC(C)(C)c1ccccc1` [Compound 11, N-n-decyl-N'-(2-phenyl-2-propyl)carbodiimide], the figures for the pest or weed control at 110 µg/g (in the series on Boophilus microplus [2]; in series [4]) were 93.1% and 100%, respectively.

On to `CCCCCCCCCCCCCCN=C=NC(C)(C)c1ccccc1` [Compound 13, N-n-myristyl-N'-(2-phenyl-2-propyl)carbodiimide], for which the pest or weed control at 110 µg/g stood at 85% with Boophilus microplus [2] and 100% in series [4]. The mortality at 100 ppm with Boophilus microplus [3] stood at 92.8%.

With `CCCCCCCCCCCCCCCCN=C=NC(C)(C)c1ccccc1` [Compound 14, N-n-cetyl-N'-(2-phenyl-2-propyl)carbodiimide], the mortality at 100 ppm in series [1] was 80.3%. The pest or weed control at 110 µg/g in series [4] turned out to be 96.6%.

For the compound `CCCCCCCCCCCCCCCCCCN=C=NC(C)(C)c1ccccc1` [Compound 15, N-n-stearyl-N'-(2-phenyl-2-propyl)carbodiimide], the pest or weed control at 110 µg/g in series [4] was 98%.

Take `CC(C)(N=C=NC1CCCCC1)c1ccccc1` [Compound 16, N-cyclohexyl-N'-(2-phenyl-2-propyl)carbodiimide]: the pest or weed control at 110 µg/g with Boophilus microplus [2] was 100%. Also, the mortality at 100 ppm in the series on Boophilus microplus [3] is 100%. The compound further came in with an LD50 at 168 h in series [5] of 6000 mg/kg.

Consider `CC1CC(N=C=NC(C)(C)c2ccccc2)CC(C)(C)C1` (stereo not shown) [Compound 17, N-(3,3,5-trimethylcyclohexyl)-N'-(2-phenyl-2-propyl)carbodiimide], for which the pest or weed control at 110 µg/g (in the series with Boophilus microplus [2]; in series [4]) was 100% throughout. Besides, the mortality at 100 ppm (in series [1]; with Boophilus microplus [3]) was 100% each time. Also, the median lethal dose (LD50) at 168 h in series [5] was determined as 11000 mg/kg.

Consider `CC(C)(N=C=Nc1ccccc1)c1ccccc1` [Compound 18, N-phenyl-N'-(2-phenyl-2-propyl)carbodiimide], for which the mortality at 100 ppm (in series [1]; in the series on Boophilus microplus [3]) was 100% each time.

As for `Cc1ccc(N=C=NC(C)(C)c2ccccc2)cc1` [Compound 19, N-p-tolyl-N'-(2-phenyl-2-propyl)carbodiimide], the mortality at 100 ppm in series [1] is 86.6%; with Boophilus microplus [3], 81.8%.

Take `COc1ccc(N=C=NC(C)(C)c2ccccc2)cc1` [Compound 20, N-p-methoxyphenyl-N-'-(2-phenyl-2-propyl)carbodiimide]: in series [1], the mortality at 100 ppm was 96.4%.

Consider `COc1ccc(N=C=NC(C)(C)c2ccccc2)c(C)c1` [Compound 21, N-p-methoxy-o-tolyl-N'-(2-phenyl-2-propyl)carbodiimide], for which, in series [1], the mortality at 100 ppm stood at 100%.

Take `CC(C)(N=C=Nc1ccc(Cl)c(Cl)c1)c1ccccc1` [Compound 22, N-3,4-dichlorophenyl-N'-(2-phenyl-2-propyl)carbodiimide]: the mortality at 100 ppm in series [1] worked out at 82.5%.

On to `CC(C)(N=C=NCc1ccccc1)c1ccccc1` [Compound 23, N-benzyl-N'-(2-phenyl-2-propyl)carbodiimide], for which the pest or weed control at 110 µg/g with Boophilus microplus [2] was 81.9%. Further, the mortality at 100 ppm stood at 99.1% in series [1] and 100% in the series on Boophilus microplus [3].

With `CC(N=C=NC(C)(C)c1ccccc1)c1ccccc1` (stereo not drawn) [Compound 24, N-α-phenylethyl-N'-(2-phenyl-2-propyl)carbodiimide], the values for the mortality at 100 ppm (in series [1]; with Boophilus microplus [3]) were 99.1% and 99.5%, respectively. The pest or weed control at 110 µg/g in series [4] came to 100%.

With `CC(C)(N=C=NCCc1ccccc1)c1ccccc1` [Compound 25, N-β-phenylethyl-N'-(2-phenyl-2-propyl)carbodiimide], the pest or weed control at 110 µg/g (with Boophilus microplus [2]; in series [4]) was 100% each time. Moreover, the mortality at 100 ppm in series [1] is 100%; with Boophilus microplus [3], 91.2%.

As for `CC(C)(N=C=NCc1ccc(Cl)cc1)c1ccccc1` [Compound 26, N-p-chlorobenzyl-N'-(2-phenyl-2-propyl)carbodiimide], the mortality at 100 ppm in series [1] was 86.4%; in the series on Boophilus microplus [3], 81.9%.

In the case of `CC(C)(N=C=NCc1ccco1)c1ccccc1` [Compound 27, N-furfuryl-N'-(2-phenyl-2-propyl)carbodiimide], the mortality at 100 ppm in series [1] was found to be 91.1%; in the series with Boophilus microplus [3] it was 77.8%.

`Cc1cc(Cl)ccc1N=CN(C)C` [Control Chemical I, reference compound]: the pest or weed control at 110 µg/g in the series with Boophilus microplus [2] amounted to 78.2%. Also, the LD50 at 168 h in series [5] was determined as 160 mg/kg.

Consider `CNC(=O)Oc1cccc2ccccc12` [Control Chemical II, reference compound], for which the pest or weed control at 110 µg/g in the series with Boophilus microplus [2] was 27%.
